# Assay results reported in ChEMBL document CHEMBL4765228, “Indole-like Trk receptor antagonists” (Eur J Med Chem, 2016).
# What was measured:
# [1] = molecular target: Casein kinase I isoform delta (Homo sapiens) (UniProt P48730); experiment: Inhibition of human CK1-delta assessed as residual activity at 0.1 uM relative to control
# [2] = molecular target: Myosin light chain kinase, smooth muscle (Homo sapiens) (UniProt Q15746); experiment: Inhibition of human MYLK assessed as residual activity at 1 uM relative to control
# [3] = molecular target: Casein kinase II subunit alpha (Homo sapiens) (UniProt P68400); experiment: Inhibition of human CK2alpha1 assessed as residual activity at 1 uM relative to control
# [4] = molecular target: Protein kinase C alpha type (Homo sapiens) (UniProt P17252); experiment: Inhibition of human PKCalpha assessed as residual activity at 0.1 uM relative to control
# [5] = molecular target: SRSF protein kinase 1 (Homo sapiens) (UniProt Q96SB4); experiment: Inhibition of human SRPK1 assessed as residual activity at 1 uM relative to control
# Homo sapiens = species: Homo sapiens; experiment: Inhibition of human PKA assessed as residual activity at 0.1 uM relative to control
# [6] = molecular target: Glycogen synthase kinase-3 beta (Homo sapiens) (UniProt P49841); experiment: Inhibition of human GSK3-beta assessed as residual activity at 1 uM relative to control
# [7] = molecular target: Serine/threonine-protein kinase PAK 4 (Homo sapiens) (UniProt O96013); experiment: Inhibition of human PAK4 assessed as residual activity at 0.1 uM relative to control
# [8] = molecular target: Mitogen-activated protein kinase kinase kinase 11 (Homo sapiens) (UniProt Q16584); experiment: Inhibition of human MAP3K11 assessed as residual activity at 0.1 uM relative to control
# [9] = molecular target: Tyrosine-protein kinase Lck (Homo sapiens) (UniProt P06239); experiment: Inhibition of human LCK assessed as residual activity at 1 uM relative to control
# [10] = molecular target: Serine/threonine-protein kinase pim-1 (Homo sapiens) (UniProt P11309); experiment: Inhibition of human PIM1 assessed as residual activity at 0.1 uM relative to control
# [11] = molecular target: Aurora kinase B (Homo sapiens) (UniProt Q96GD4); experiment: Inhibition of human Aurora-B assessed as residual activity at 1 uM relative to control
# [12] = molecular target: High affinity nerve growth factor receptor (Homo sapiens, UniProt P04629); experiment: Inhibition of human TRKA assessed as residual activity at 0.1 uM relative to control
# [13] = molecular target: Insulin-like growth factor 1 receptor (Homo sapiens) (UniProt P08069); experiment: Inhibition of human IGF1R assessed as residual activity at 1 uM relative to control
# [14] = molecular target: Calcium/calmodulin-dependent protein kinase kinase 2 (Homo sapiens) (UniProt Q96RR4); experiment: Inhibition of human CAMKK2 assessed as residual activity at 0.1 uM relative to control
# [15] = molecular target: Rho-associated protein kinase 2 (Homo sapiens) (UniProt O75116); experiment: Inhibition of human ROCK2 assessed as residual activity at 0.1 uM relative to control
# [16] = molecular target: Mitogen-activated protein kinase 14 (Homo sapiens) (UniProt Q16539); experiment: Inhibition of human p38-alpha assessed as residual activity at 0.1 uM relative to control
# [17] = molecular target: T1, Dual specificity protein kinase TTK (Homo sapiens) (UniProt P33981); experiment: Inhibition of human TTK assessed as residual activity at 1 uM relative to control
# T1 sequence (whole entry): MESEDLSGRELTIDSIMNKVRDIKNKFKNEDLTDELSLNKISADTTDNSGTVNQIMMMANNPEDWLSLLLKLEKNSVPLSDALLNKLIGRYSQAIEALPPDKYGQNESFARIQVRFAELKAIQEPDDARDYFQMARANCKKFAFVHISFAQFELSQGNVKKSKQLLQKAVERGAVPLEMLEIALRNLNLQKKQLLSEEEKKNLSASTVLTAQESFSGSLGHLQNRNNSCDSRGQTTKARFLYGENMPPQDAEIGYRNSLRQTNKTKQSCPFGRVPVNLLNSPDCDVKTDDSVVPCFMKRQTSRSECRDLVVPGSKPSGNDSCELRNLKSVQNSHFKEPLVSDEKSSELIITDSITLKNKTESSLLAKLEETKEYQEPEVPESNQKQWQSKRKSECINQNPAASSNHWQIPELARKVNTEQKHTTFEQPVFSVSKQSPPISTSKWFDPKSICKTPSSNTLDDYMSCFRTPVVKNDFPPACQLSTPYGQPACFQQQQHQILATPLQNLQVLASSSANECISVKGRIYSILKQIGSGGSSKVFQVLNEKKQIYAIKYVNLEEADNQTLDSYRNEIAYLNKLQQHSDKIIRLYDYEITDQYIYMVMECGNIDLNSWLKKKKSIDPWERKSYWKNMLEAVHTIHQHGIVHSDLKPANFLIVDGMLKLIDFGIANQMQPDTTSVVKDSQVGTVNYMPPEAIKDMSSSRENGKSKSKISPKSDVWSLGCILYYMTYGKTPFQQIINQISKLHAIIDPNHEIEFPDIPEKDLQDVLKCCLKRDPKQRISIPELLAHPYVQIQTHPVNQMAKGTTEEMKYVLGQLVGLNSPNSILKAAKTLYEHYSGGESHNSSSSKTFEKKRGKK
# [18] = molecular target: T2, Eukaryotic elongation factor 2 kinase (Homo sapiens) (UniProt O00418); experiment: Inhibition of human EEF2K assessed as residual activity at 0.1 uM relative to control
# T2 sequence (whole entry): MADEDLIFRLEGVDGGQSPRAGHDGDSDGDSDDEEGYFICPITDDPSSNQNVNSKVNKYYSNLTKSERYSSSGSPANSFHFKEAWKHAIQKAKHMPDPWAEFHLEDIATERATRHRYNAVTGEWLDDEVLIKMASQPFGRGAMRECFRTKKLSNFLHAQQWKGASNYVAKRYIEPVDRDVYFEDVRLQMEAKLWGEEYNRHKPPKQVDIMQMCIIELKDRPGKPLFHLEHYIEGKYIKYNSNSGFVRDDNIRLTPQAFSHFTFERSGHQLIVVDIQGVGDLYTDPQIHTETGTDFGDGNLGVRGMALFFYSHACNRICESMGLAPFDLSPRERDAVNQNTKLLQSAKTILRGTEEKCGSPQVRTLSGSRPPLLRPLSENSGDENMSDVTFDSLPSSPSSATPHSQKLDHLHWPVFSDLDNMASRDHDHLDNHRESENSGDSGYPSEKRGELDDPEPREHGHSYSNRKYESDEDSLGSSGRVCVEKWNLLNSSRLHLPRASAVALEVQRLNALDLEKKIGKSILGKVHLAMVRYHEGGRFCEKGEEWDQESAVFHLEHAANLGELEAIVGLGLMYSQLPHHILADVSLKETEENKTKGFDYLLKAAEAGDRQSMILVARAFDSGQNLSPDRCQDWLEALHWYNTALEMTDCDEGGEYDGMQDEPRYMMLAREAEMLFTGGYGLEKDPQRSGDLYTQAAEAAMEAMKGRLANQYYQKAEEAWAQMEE
# [19] = molecular target: SRSF protein kinase 1 (Homo sapiens) (UniProt Q96SB4); experiment: Inhibition of human SRPK1 assessed as residual activity at 0.1 uM relative to control
# Chain of Insulin-like growth factor 1 receptor (Homo sapiens) (P08069 31-736 limits assumed): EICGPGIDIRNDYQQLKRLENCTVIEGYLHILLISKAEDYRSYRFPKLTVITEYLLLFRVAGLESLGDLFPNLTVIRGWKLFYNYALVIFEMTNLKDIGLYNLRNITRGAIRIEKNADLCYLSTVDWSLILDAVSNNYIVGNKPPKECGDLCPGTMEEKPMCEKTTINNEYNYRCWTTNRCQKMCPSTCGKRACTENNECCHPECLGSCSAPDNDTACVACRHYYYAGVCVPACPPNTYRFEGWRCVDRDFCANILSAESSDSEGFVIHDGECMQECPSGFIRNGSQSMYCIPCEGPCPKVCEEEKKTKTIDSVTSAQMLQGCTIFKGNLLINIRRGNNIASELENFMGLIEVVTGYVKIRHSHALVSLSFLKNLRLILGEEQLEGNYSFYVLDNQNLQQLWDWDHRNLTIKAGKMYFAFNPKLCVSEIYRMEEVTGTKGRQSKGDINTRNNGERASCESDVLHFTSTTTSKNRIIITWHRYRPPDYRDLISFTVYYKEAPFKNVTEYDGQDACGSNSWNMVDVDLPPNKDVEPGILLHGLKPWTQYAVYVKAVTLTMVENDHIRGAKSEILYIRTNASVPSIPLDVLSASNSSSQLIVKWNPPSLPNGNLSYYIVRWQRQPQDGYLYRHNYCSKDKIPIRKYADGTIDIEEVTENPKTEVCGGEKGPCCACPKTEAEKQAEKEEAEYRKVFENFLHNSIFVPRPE
# Chain of Insulin-like growth factor 1 receptor (Homo sapiens) (P08069 741-1367 limits assumed): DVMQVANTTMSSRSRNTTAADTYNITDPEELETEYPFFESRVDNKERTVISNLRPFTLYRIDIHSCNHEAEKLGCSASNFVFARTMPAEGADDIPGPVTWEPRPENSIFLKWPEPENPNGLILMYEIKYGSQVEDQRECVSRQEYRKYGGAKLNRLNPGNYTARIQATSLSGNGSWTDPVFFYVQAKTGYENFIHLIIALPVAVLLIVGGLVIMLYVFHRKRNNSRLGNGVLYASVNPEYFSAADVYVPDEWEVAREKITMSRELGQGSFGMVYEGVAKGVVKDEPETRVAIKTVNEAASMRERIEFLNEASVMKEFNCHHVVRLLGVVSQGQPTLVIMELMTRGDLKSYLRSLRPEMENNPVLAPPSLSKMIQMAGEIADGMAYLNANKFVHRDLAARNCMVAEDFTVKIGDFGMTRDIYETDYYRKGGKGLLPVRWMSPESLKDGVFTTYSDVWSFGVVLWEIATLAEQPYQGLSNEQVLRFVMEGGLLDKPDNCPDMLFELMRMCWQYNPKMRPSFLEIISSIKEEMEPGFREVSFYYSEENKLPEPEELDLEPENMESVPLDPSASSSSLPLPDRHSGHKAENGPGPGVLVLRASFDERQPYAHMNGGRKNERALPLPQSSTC
# Chain of Casein kinase I isoform delta (Homo sapiens) (P48730 whole entry, looked up, canonical isoform): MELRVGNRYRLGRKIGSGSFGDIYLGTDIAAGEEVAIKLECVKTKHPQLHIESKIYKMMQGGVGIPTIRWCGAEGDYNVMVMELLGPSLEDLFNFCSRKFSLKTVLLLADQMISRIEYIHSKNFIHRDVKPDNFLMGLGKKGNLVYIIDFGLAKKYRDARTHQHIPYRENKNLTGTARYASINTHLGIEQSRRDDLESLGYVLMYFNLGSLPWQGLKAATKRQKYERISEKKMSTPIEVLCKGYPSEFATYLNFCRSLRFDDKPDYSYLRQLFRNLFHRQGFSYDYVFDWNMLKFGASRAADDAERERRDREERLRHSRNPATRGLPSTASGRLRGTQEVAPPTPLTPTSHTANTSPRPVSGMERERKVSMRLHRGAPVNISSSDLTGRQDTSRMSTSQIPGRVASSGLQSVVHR
# Chain of Serine/threonine-protein kinase PAK 4 (Homo sapiens) (O96013 whole entry, looked up): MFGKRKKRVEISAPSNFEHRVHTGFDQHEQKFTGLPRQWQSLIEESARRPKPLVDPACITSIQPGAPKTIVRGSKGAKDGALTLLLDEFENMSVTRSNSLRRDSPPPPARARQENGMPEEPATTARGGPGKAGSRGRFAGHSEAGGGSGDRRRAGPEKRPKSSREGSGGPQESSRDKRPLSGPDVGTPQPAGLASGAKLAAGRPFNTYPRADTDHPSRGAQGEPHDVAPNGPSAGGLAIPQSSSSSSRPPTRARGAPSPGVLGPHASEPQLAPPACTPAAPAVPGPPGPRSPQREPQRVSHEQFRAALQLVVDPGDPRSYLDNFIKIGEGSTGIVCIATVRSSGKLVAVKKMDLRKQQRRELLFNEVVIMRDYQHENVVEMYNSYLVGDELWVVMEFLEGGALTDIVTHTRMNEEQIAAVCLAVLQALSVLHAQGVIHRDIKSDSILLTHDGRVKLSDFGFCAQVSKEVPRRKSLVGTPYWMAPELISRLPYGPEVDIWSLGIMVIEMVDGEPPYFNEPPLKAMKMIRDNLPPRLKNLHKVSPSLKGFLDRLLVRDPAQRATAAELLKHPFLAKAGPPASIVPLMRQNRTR
# Chain of Casein kinase II subunit alpha (Homo sapiens) (P68400 whole entry, looked up): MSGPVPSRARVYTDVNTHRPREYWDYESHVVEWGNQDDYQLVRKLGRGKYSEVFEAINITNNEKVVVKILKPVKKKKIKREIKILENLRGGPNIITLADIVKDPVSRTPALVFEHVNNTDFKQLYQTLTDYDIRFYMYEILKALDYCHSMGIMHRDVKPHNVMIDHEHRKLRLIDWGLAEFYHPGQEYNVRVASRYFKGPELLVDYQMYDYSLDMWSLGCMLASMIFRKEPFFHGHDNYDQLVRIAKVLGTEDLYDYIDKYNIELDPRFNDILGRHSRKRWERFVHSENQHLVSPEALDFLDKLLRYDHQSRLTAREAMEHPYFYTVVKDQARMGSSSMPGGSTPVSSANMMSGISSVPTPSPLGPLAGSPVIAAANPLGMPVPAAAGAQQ
# Chain of Mitogen-activated protein kinase kinase kinase 11 (Homo sapiens) (Q16584 whole entry, looked up): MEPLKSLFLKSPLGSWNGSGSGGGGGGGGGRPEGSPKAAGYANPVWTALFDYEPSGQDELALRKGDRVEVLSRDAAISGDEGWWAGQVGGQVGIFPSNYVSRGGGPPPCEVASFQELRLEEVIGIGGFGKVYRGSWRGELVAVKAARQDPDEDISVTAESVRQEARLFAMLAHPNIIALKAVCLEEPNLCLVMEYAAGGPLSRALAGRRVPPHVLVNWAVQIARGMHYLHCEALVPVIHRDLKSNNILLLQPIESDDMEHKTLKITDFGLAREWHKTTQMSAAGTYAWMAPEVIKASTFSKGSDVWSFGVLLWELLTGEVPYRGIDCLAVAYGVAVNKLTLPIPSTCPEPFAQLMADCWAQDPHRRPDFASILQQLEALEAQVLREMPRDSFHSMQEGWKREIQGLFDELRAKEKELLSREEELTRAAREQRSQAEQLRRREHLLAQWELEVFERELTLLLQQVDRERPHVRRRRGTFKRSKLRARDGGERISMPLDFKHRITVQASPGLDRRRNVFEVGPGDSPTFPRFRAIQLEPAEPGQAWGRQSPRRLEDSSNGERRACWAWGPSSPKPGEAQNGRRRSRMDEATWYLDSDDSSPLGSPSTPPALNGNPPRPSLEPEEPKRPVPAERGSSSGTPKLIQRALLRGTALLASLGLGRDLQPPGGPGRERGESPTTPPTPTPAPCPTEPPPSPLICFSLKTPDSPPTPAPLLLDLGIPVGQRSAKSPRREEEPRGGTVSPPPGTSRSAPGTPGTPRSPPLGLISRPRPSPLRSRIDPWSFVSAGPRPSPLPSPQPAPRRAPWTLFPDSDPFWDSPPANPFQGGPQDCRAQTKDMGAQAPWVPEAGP
# Chain of Mitogen-activated protein kinase 14 (Homo sapiens) (Q16539 whole entry): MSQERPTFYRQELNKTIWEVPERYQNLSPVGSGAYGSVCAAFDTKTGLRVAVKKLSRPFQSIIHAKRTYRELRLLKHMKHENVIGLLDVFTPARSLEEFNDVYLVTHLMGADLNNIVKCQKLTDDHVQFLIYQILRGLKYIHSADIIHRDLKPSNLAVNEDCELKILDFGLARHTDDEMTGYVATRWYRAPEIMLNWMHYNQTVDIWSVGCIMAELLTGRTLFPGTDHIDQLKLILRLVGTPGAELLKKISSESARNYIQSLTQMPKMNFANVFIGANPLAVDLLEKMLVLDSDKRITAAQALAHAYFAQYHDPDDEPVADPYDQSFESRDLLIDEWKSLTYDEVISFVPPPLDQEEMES
# Chain of Tyrosine-protein kinase Lck (Homo sapiens) (P06239 2-509 limits assumed): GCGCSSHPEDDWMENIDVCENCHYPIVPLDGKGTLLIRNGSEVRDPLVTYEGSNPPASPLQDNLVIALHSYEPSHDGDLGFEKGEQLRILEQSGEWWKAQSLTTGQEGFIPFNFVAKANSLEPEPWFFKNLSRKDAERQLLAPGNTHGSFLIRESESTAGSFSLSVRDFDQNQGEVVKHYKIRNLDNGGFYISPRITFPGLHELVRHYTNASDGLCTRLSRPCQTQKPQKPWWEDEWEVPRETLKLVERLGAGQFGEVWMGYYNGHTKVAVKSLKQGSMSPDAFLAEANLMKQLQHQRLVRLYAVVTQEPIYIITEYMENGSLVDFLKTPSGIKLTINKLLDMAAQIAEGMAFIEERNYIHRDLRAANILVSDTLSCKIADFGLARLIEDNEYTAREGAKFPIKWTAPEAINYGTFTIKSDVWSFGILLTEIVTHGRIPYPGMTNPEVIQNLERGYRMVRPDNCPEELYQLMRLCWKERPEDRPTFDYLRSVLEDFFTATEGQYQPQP
# Chain of Aurora kinase B (Homo sapiens) (Q96GD4 whole entry): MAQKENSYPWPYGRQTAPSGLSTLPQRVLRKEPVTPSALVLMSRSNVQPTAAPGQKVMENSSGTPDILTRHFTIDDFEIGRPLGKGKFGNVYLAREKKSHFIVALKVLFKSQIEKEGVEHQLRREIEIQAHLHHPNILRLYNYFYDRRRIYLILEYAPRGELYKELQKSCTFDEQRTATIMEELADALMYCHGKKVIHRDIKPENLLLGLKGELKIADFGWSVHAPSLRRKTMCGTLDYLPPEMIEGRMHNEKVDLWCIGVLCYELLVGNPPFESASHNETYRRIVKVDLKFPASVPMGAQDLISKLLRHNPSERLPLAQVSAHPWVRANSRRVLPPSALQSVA
SMILES,Activity [1] [%],Activity [2] [%],Activity [3] [%],Activity [4] [%],Activity [5] [%],Activity (Homo sapiens) [%],Activity [6] [%],Activity [7] [%],Activity [8] [%],Activity [9] [%],Activity [10] [%],Activity [11] [%],Activity [12] [%],Activity [13] [%],Activity [14] [%],Activity [15] [%],Activity [16] [%],Activity [17] [%],Activity [18] [%],Activity [19] [%]
Cn1cc(/C=C2\C(=O)Nc3ccc(S(N)(=O)=O)cc32)c2ccccc21,88,90,96,106,101,94,92,74,36,50,105,42,3,107,62,76,107,85,99,116
COc1ccc2c(c1)c(/C=C1\C(=O)Nc3ccc(S(=O)(=O)N(C)C)cc31)cn2C,89,91,90,93,95,91,97,96,84,64,104,71,18,79,76,92,95,106,99,111
CNS(=O)(=O)c1ccc2c(c1)/C(=C/c1cn(C)c3ccc(OC)cc13)C(=O)N2,89,90,100,101,101,91,90,84,76,41,94,76,4,60,56,94,102,86,103,105
